Source: patent US6177592A, “Compounds” (priority 1997, dated 2001)

Tests used:
[1] = tested on: heat shock protein of 70 kDa (HSP70); assay: Induction of heat shock protein of 70 kDa in HL-60; assay type: cell-based, human; design: key: -: no induction was noted; ±: the induction was slight; indicates degree of intensity of induction and the more the numbers of "+", the more the intensity of induction; ++: the more the numbers of "+", the more the intensity of induction; +++: the more the numbers of "+", the more the intensity of induction; conditions: 5 μM CM
[2] = tested on: HL-60 cells (promyelocytic leukemia cell); assay: Viable cell numbers of HL-60 (growth inhibition of cancer cells); assay type: cell-based, human
Procedure: (1) Each 0.5 ml of 0.2 mM CM, 0.8 mM CM or 1.6 mM CM was added to 4.5 ml of RPMI 1640 medium containing 10% of fetal calf serum and 2.5×10^5HL-60 cells (promyelocytic leukemia cell) (ATCC CCL-240) and incubated at 37° C. for 24 hours or 48 hours in the presence of 5% carbon dioxide gas and the numbers of viable cells were measured.
In FIG. 28, open square (.quadrature.) indicates the case where CM is added followed by culturing for 24 hours; black square (.box-solid.) indicates the case where CM is added followed by culturing for 48 hours; open triangle (Δ) indicates the case where no sample was added followed by culturing for 24 hours; and black triangle (.tangle-solidup.) indicates the case where no sample was added followed by culturing for 48 hours.
(4) HL-60 cells (ATCC CCL240) which were incubated at 37° C. in an RPMI 1640 medium (manufactured by Nissui) containing 10% of fetal calf serum (manufactured by Gibco) treated at 56° C. for 30 minutes were suspended in the above medium to make the concentration 2.5×10^5cells/4.5 ml. To this suspension was added 0.5 ml of 100 μM aqueous solution of GM (final concentration: 10 μM) followed by incubating at 37° C. in the presence of 5% carbon dioxide gas for 24 hours, 48 hours and 72 hours. […]

Fas antigen = Fas antigen expression in Jurkat cells; assay type: cell-based, human; conditions: 1-10 μM, 24 hours
Procedure: (2) Influence of GM on Fas antigen expression (productive induction) in Jurkat cells and Molt-3 cells was measured as follows. In a 10% FCS-containing RPMI 1640 medium containing 0, 1, 5, 10 or 20 μM of cyclopentenone or GM, 5×10^5 cell/ml of Jurkat cells or Molt-3 cells were incubated at 37° C. for 24 hours in the presence of 5% of CO2 and then subjected to a two-step immunostaining using an anti-Fas antibody (manufactured by Boehringer-Ingelheim) in accordance with a method of Munker [Munker, R.: Ann. Hematol., volume 70, pages 15-17 (1995)].
Fluorescence intensity of the stained 1×10^4 cells was measured by a flow cytometer (Orthocytron; manufactured by Ortho Diagnostic Systems) and ratio of the cell showing a predetermined or higher fluorescence intensity which were Fas antigen-expressing cells was calculated.

antigen-specific IgE = assay: Antigen-specific IgE production (48-hour rat PCA); assay type: in vivo, rat (Wistar); conditions: for IgE Titer: three days, control 64
Procedure: Yale rats of Wistar strain of five weeks age (one group consisting of five rats) (Nippon SLC) were sensitized by an intraperitoneal injection of 100 μl of 0.01% solution of egg white albumin (Sigma) in an aqueous physiological saline solution and 100 μl of Alum (trade name: Imject Alum; Pierce) and, after 14 days, blood was collected from abdominal artery.
The collected blood was centrifuged (at 2000 rpm for five minutes), plasma was separated and the amount of antigen-specific IgE was measured by a 48-hour rat passive cutaneous anaphylaxis (PCA) reaction.
Thus, serum was diluted with a physiological saline solution in a successively doubling manner ranging from 1/4 to 1/64 and each 0.1 ml thereof was subcutaneously injected to hair-clipped back of male rats of Wistar strain of seven weeks age. After 48 hours from the subcutaneous injection, 1 ml of a mixture of 0.05% egg white albumin and 0.5% Evans Blue (manufactured by Nacalai Tesque) was injected from tail vein. After 30 minutes from the injection from the tail vein, rats were subjected to decapitation and to exanguinated death, blue spots appeared on the back were observed, the spots with a diameter of 5 mm or more were judged to be positive and the highest dilution was adopted as an IgE titer.
In the GM-administered groups, 3 mg/kg or 30 mg/kg of GM was intraperitoneally administered once daily for three days from the antigen-sensitized day while, in the control group, distilled water was intraperitoneally administered by the same manner.

[3] = tested on: DSEK cell (fibroblast strain from synovial membrane); assay: Growth of DSEK synovial fibroblasts (WST-1) and apoptosis; assay type: cell-based, human (patient suffering from chronic articular rheumatism)
Procedure: DSEK cell (cell strain stored at the Department of Second Internal Medicine, Integrated Medical Center, Saitama College of Medicine) which was a fibroblast strain established from synovial membrane of a patient suffering from chronic articular rheumatism was incubated in an Iscob-modified Dulbecco medium (IMDM, manufactured by Gibco, 12440-053) containing 10% fetal bovine serum (FBS, manufactured by Gibco, 26140-079) at 37° C. in the presence of 5% carbon dioxide gas until confluent and then the cells were collected by peeling off with trypsin-EDTA (manufactured by Gicbo, 25300-054). The cells were suspended in the above-mentioned medium until 25,000 cells/ml were resulted and each 100 μl was placed in each well of a 96-well microtiter plate. After five days from incubation when the state of confluence was almost achieved, the medium was discarded and then the above-mentioned medium containing 2.5, 5, 10, 20 or 30 μM of GM was added. After incubating for 24, 48 or 72 hours, 10 μl of a premix WST-1 (manufactured by Takara Shuzo, MK400) was added thereto followed by subjecting to a reaction at 37° C. for four hours. The value obtained by deducting the absorbance at 650 nm (A650) from that at 450 nm (A450) was defined as a degree of growth of cell.

| SMILES | Induction of Heat Shock Protein [1] | inhibition activity of the growth of cancer cells ([2]; 0.5 ml of 0.2, 0.8 or 1.6 mM CM added to 4.5 ml, 24 or 48 hours) | ratio of Fas antigen-expressing cells (Fas antigen) | IgE Titer (antigen-specific IgE; 3 mg/kg/day i.p.) | IgE Titer (antigen-specific IgE; 30 mg/kg/day i.p.) | inhibiting activity to IgE production (in words) (antigen-specific IgE; rat, in vivo) | degree of growth of cell (A450 - A650) ([3]; 2.5 μM, 24 hours, 0 μM 0.846) | degree of growth of cell (A450 - A650) ([3]; 2.5 μM, 48 hours, 0 μM 1.270) | degree of growth of cell (A450 - A650) ([3]; 5 μM, 24 hours, 0 μM 0.846) | degree of growth of cell (A450 - A650) ([3]; 5 μM, 48 hours, 0 μM 1.270) | production of apoptic bodies ([3]; 10 μM) | degree of growth of cell (A450 - A650) ([3]; 10 μM, 24 hours, 0 μM 0.846) | degree of growth of cell (A450 - A650) ([3]; 10 μM, 48 hours, 0 μM 1.270) | degree of growth of cell (A450 - A650) ([3]; 20 μM, 24 hours, 0 μM 0.846) | degree of growth of cell (A450 - A650) ([3]; 20 μM, 48 hours, 0 μM 1.270) | degree of growth of cell (A450 - A650) ([3]; 30 μM, 24 hours, 0 μM 0.846) | degree of growth of cell (A450 - A650) ([3]; 30 μM, 48 hours, 0 μM 1.270) | apoptosis-inducing and growth-inhibiting action to synovial cells (in words) ([3]; Example 11) | minimal effective concentration ([3]; Homo sapiens, Fibroblast, 24 and 48 hours, vs control, read-out: concentration at which cell growth was inhibited) | viable cell numbers and viability of cells ([2]; 10 μM GM, 24, 48 and 72 hours, vs water control) |
| --- | --- | --- | --- | --- | --- | --- | --- | --- | --- | --- | --- | --- | --- | --- | --- | --- | --- | --- | --- | --- |
| N[C@@H](CSC1C=C(O)C(=O)C1)C(=O)O (some centres unmarked) [CM] | - | intensive inhibition activity of the growth of cancer cells |  |  |  |  |  |  |  |  |  |  |  |  |  |  |  |  |  |  |
| N[C@@H](CCC(=O)N[C@@H](CSC1C=C(O)C(=O)C1)C(=O)NCC(=O)O)C(=O)O (some centres unmarked) [GM, 2-hydroxy-4-glutathion-S-yl-2-cyclopenten-1-one] |  |  | the ratio of Fas antigen-expressing cells increased on a concentration-dependent manner | 32 | 8 | inhibited by administration of GM in a dose-dependent manner | 0.768 | 1.133 | 0.621 | 0.942 | production of apoptic bodies was noted | 0.420 | 0.486 | 0.238 | 0.185 | 0.241 | 0.196 | apoptosis-inducing action and growth-inhibiting action to synovial cells | ≥ 5 µM | significantly reduced |
